Results as given in patent US6921821B2, “Antagonists of melanin concentrating hormone receptor” (Abbott Laboratories, priority 2002, dated 2005).
Counter-ions that a name gives are not always drawn.

Target: T1, murine MCHR (Mus musculus, UniProt Q8JZL2)
T1 construct: expressed in transfected cells; host or cells: HEK293
Experiment: Assay for release of intracellular calcium (FLIPR, Fluo-4), inhibition of MCH-induced Ca++ flux
Type: cell-based
Conditions: test compound at a dose of 10 μM, HEK293 cells expressing the murine MCHR, read-out: inhibition of MCH (MCH induced Ca++ flux / fluorescence)
Summary of the method: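 HEK293 cells expressing murine MCHR were loaded with Fluo-4AM (2.5 μM) and given compound (40 μM stock in 4% DMSO), with 3 min monitoring for agonism. They were then challenged with mouse MCH (12 nM as added) and FLIPR fluorescence followed 3 min more. % inhibition of MCH-induced Ca++ flux was calculated against baseline and no-compound signals.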

T1 sequence (Q8JZL2 whole entry): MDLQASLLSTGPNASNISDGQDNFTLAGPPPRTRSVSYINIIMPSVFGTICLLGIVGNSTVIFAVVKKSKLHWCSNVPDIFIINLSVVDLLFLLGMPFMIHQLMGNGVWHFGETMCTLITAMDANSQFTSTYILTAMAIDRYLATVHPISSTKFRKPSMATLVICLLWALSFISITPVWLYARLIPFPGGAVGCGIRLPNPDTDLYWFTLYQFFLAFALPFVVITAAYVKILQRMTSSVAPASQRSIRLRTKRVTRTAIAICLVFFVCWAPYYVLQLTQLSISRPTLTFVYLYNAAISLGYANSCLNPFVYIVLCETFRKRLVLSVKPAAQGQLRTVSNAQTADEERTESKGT

Compound	inhibition at 10 µM [%]
CCc1ccc2c(c1)c(NC1CCN(Cc3ccc4c(c3)OCO4)CC1)cc(=O)n2CC [Compound V-17, 4-(1-Benzo[1,3]dioxol-5-ylmethyl-piperidin-4-ylamino)-1,6-diethyl-1H-quinolin-2-one]	≥ 50
O=c1cc(NC2CC3CCC(C2)N3Cc2ccc3c(c2)OCO3)c2cc(Cl)ccc2n1CC(F)(F)F (stereo not shown) [Compound V-57]	≥ 50
O=c1cc(NC2CCN(Cc3cc(Cl)c4occc4c3)CC2)c2cc(Cl)ccc2o1 [II-93, 6-Chloro-4-[1-(7-chloro-benzofuran-5-ylmethyl)-piperidin-4-ylamino]-chromen-2-one]	≥ 50
COc1ccc2oc(=O)cc(NC3CCN(Cc4cccc5sccc45)CC3)c2c1 [II-101, 4-{[1-(1-benzothien-4-ylmethyl)piperidin-4-yl]amino}-6-methoxy-2H-chromen-2-one]	≥ 50
COc1ccc2oc(=O)c(F)c(NC3CCN(Cc4ccc5c(c4)OCO5)CC3)c2c1 [II-26, 4-(1-Benzo{1,3}dioxol-5-ylmethyl-piperidin-4-ylamino)-3-fluoro-6-methoxychromene-2-one]	≥ 50
CC(c1ccc(Cl)cc1)N1CCC(Nc2cc(=O)oc3ccc(Cl)cc23)CC1 (stereo not shown) [II-74, 6-Chloro-4-{1-[1-(4-chloro-phenyl)-ethyl]-piperidin-4-ylamino}-chromen-2-one]	≥ 50
O=c1cc(NC2CCN(C/C=C/c3ccccc3F)CC2)c2cc(Cl)ccc2o1 [III-56, 6-Chloro-4-{1-[3-(2-fluoro-phenyl)-allyl]-piperidin-4-ylamino}-chromen-2-one]	≥ 50
COc1ccc2c(c1)c(NC1CCN(Cc3ccc4ccccc4c3)CC1)cc(=O)n2C [Compound V-9, 6-Methoxy-1-methyl-4-(1-naphthalen-2-ylmethyl-piperidin-4-ylamino)-1H-quinolin-2-one]	≥ 50
O=c1cc(NC2CCN(Cc3ccc4c(c3)OCO4)CC2)c2cc(Cl)ccc2[nH]1 [Compound V-11, 4-(1-Benzo[1,3]dioxol-5-ylmethyl-piperidin-4-ylamino)-6-chloro-1H-quinolin-2-one]	≥ 50
CCOc1ccc(CN2CCC(Nc3cc(=O)oc4ccc(OC)cc34)CC2)cc1 [II-80, 4-[1-(4-Ethoxy-benzyl)-piperidin-4-ylamino]-6-methoxy-chromen-2-one trifluoroacetate]	≥ 50
COc1ccc(CN2CCC(Nc3c(C(=O)N(C)C)c(=O)n(C)c4ccc(Cl)cc34)CC2)cc1F [Compound V-54, 6-Chloro-4-[1-(3-fluoro-4-methoxy-benzyl)-piperidin-4-ylamino]-1-methyl-2-oxo-1,2-dihydro-quinoline-3-carboxylic acid dimethylamide]	≥ 50
COc1ccc2oc(=O)cc(NC3CCN(Cc4ccc(Br)cc4)CC3)c2c1 [II-65, 4-[1-(4-Bromo-benzyl)-piperidin-4-ylamino]-6-methoxy-chromen-2-one trifluoroacetate]	≥ 50
CN(C)C(=O)c1c(NC2CCN(Cc3ccc4ccccc4c3)CC2)c2cc(Cl)ccc2n(C)c1=O [Compound V-24, 6-Chloro-1-methyl-4-(1-naphthalen-2-ylmethyl-piperidin-4-ylamino)-2-oxo-1,2-dihydro-quinoline-3-carboxylic acid dimethylamide]	≥ 50
COc1ccc([C@@H](C)N2CCC(Nc3cc(=O)oc4ccc(Cl)cc34)CC2)cc1F (stereo in doubt) [II-45, 6-Chloro-4-{1-[1-(3-fluoro-4-methoxy-phenyl)-ethyl]-piperidin-4-ylamino}-chromen-2-one]	≥ 50
COc1ccc2oc(=O)cc(NC3CCN(Cc4cc5ccccc5n4C)CC3)c2c1 [II-84, 6-Methoxy-4-[1-(1-methyl-1H-indol-2-ylmethyl)-piperidin-4-ylamino]-chromen-2-one, trifluoroacetate]	≥ 50
O=c1cc(NC2CCN(Cc3ccc4cc[nH]c4c3)CC2)c2cc(Cl)ccc2o1 [II-31, 6-Chloro-4-[1-(1H-indol-6-ylmethyl)-piperidin-4-ylamino]-chromen-2-one]	≥ 50
O=c1cc(NC2CCN(Cc3csc4ccccc34)CC2)c2cc(Cl)ccc2o1 [II-6, 4-(1-Benzo[b]thiophen-3-ylmethyl-piperidin-4-ylamino)-6-chloro-chromen-2-one]	≥ 50
O=c1cc(NC2CCN(Cc3ccc4ccccc4c3)CC2)c2cc(OC(F)F)ccc2o1 [II-32, 6-Difluoromethoxy-4-(1-naphthalen-2-ylmethyl-piperidin-4-ylamino)-chromen-2-one]	≥ 50
C[C@@H](c1ccc2ccccc2c1)N1CCC(Nc2cc(=O)oc3ccc(Cl)cc23)CC1 [II-120, (S)-6-Chloro-4-[1-(1-naphthalen-2-yl-ethyl)-piperdin-4-ylamino]-chromen-2-one]	≥ 50

Compound	inhibition at 10 µM [%]
COc1cccc(CN2CCC(Nc3cc(=O)oc4ccc(OC)cc34)CC2)c1 [II-76, 6-Methoxy-4-[1-(3-methoxy-benzyl)-piperidin-4-ylamino]-chromen-2-one trifluoroacetate]	≥ 50
COc1ccc2oc(=O)cc(NC3CCN(Cc4ccc5c(c4)OCO5)CC3)c2c1 [II-1, 4-(1-Benzo[1,3]dioxol-5-ylmethyl-piperidin-4-ylamino)-6-methoxy-chromen-2-one]	≥ 50
Cc1cc2cc(CN3CCC(Nc4cc(=O)oc5ccc(Cl)cc45)CC3)ccc2o1 [II-61, 6-Chloro-4-[1-(2-methyl-benzofuran-5-ylmethyl)-piperidin-4-ylamino]-chromen-2-one]	≥ 50
COc1ccc2oc(=O)cc(NC3CCN(Cc4ccc(C)c(C)c4)CC3)c2c1 [II-29, 4-[1-(3,4-Dimethyl-benzyl)-piperidin-4-ylamino]-6-methoxy-chromen-2-one trifluoroacetate]	≥ 50
COc1ccc2oc(=O)cc(NC3CCN(Cc4ccc(C)c(F)c4)CC3)c2c1 [II-105, 4-[1-(3-Fluoro-4-methyl-benzyl)-piperidin-4-ylamino]-6-methoxy-chromen-2-one trifluoroacetate]	≥ 50
Cn1c(=O)c(C(=O)N2CCCC2)c(NC2CCN(Cc3ccc4c(c3)OCO4)CC2)c2cc(Cl)ccc21 [Compound V-59, 4-(1-Benzo[1,3]dioxol-5-ylmethyl-piperidin-4-ylamino)-6-chloro-1-methyl-3-(pyrrolidine-1-carbonyl)-1H-quinolin-2-one]	≥ 50
O=c1cc(NC2CCN(C/C=C/c3ccccc3)CC2)c2ccccc2n1Cc1ccccc1 [Compound V-44, 1-Benzyl-4-[1-(3-phenyl-allyl)-piperidin-4-ylamino]-1H-quinolin-2-one]	≥ 50
COc1ccccc1/C=C/CN1CCC(Nc2cc(=O)oc3ccc(C)cc23)CC1 [III-19, 4-{1-[3-(2-Methoxy-phenyl)-allyl]-piperidin-4-ylamino}-6-methyl-chromen-2-one]	≥ 50
CC(C)c1ccc2c(c1)c(NC1CCN(Cc3ccc4c(c3)OCO4)CC1)cc(=O)n2C [Compound V-43, 4-(1-Benzo[1,3]dioxol-5-ylmethyl-piperidin-4-ylamino)-6-isopropyl-1-methyl-1H-quinolin-2-one]	≥ 50
O=c1cc(NC2CCN(Cc3ccc4cnccc4c3)CC2)c2cc(Cl)ccc2o1 [II-73, 6-Chloro-4-(1-isoquinolin-6-ylmethyl-piperidin-4-ylamino)-chromen-2-one]	≥ 50
O=c1cc(NC2CCN(Cc3ccc4c(c3)OCO4)CC2)c2cc(Cl)ccc2n1Cc1ccccn1 [Compound V-2, 4-(1-Benzo[1,3]dioxol-5-ylmethyl-piperidin-4-ylamino)-6-chloro-1-pyridin-2-ylmethyl-1H-quinolin-2-one]	≥ 50
COc1ccc2oc(=O)cc(NC3CCN(Cc4ccc(OC(F)F)cc4)CC3)c2c1 [II-43, 4-[1-(4-Difluoromethoxy-benzyl)-piperidin-4-ylamino]-6-methoxy-chromen-2-one trifluoroacetate]	≥ 50
COc1ccc2oc(=O)cc(NC3CCN(Cc4ccc(C(=O)NCCc5ccccn5)cc4)CC3)c2c1 [II-83, 4-[4-(6-Methoxy-2-oxo-2H-chromen-4-ylamino)-piperidin-1-ylmethyl]-N-(2-pyridin-2-yl-ethyl)-benzamide; Double TFA Salt]	≥ 50
CCc1ccc2c(c1)c(NC1CCN(C(C)c3ccc4c(c3)OCO4)CC1)cc(=O)n2CC (stereo not shown) [Compound V-18, 4-[1-(1-Benzo[1,3]dioxol-5-yl-ethyl)-piperidin-4-ylamino]-1,6-diethyl-1H-quinolin-2-one]	≥ 50
Cn1c(=O)c(C#N)c(NC2CCN(Cc3ccc4c(c3)OCO4)CC2)c2cc(Cl)ccc21 [Compound V-51, 4-(1-Benzo[1,3]dioxol-5-ylmethyl-piperidin-4-ylamino)-6-chloro-1-methyl-2-oxo-1,2-dihydro-quinoline-3-carbonitrile]	≥ 50
COc1ccc2oc(=O)cc(NC3CCN(Cc4ccc5ccc(C)cc5c4)CC3)c2c1 [II-27, 6-Methoxy-4-[1-(7-methyl-naphthalen-2-ylmethyl)-piperidin-4-ylamino]-chromen-2-one trifluoroacetate]	≥ 50
C[C@H](c1ccc2c(c1)OCO2)N1CCC(Nc2cc(=O)oc3ccc(Cl)cc23)CC1 [II-28, 4-[1-(1-Benzo[1,3]dioxol-5-yl-ethyl)-piperidin-4-ylamino]-6-chloro-chromen-2-one]	≥ 50
Cn1c(=O)c(C2=NC(C)(C)CO2)c(NC2CCN(Cc3ccc4c(c3)OCO4)CC2)c2cc(Cl)ccc21 [Compound V-49, 4-(1-Benzo[1,3]dioxol-5-ylmethyl-piperidin-4-ylamino)-6-chloro-3-(4,4-dimethyl-4,5-dihydro-oxazol-2-yl)-1-methyl-1H-quinolin-2-one]	≥ 50
